In PubChem BioAssay AID330 (DTP/NCI, 2004):
Where “and” joins values, the source holds several entries; their conditions need not be identical. Identical values can stand only once. Inconclusive results and toxic doses are left out.

System: P388 leukemia ip, CD2F1 mice, survival T/C
Assay: NCI In Vivo Anticancer Drug Screen. Data for tumor model P388 Leukemia (intraperitoneal) in CD2F1 (CDF1) mice
Settings: endpoint: median survival time, higher = longer survival
Summary of the method: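 Mice carrying the transplanted tumor received test compound or vehicle. Survival was recorded in each group, and the value is the treated-group measurement divided by that of the vehicle-treated control group.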

[1] = dose: 50.0 mg/kg/injection, schedule: Q01DX009 (ip), vehicle: saline
[2] = dose: 100.0 mg/kg/injection, schedule: Q01DX009 (ip), vehicle: saline
[3] = dose: 200.0 mg/kg/injection, schedule: Q01DX009 (ip), vehicle: saline
[4] = dose: 100.0 mg/kg/injection, schedule: Q01DX009 (ip), vehicle: saline with Tween-80
[5] = dose: 200.0 mg/kg/injection, schedule: Q01DX009 (ip), vehicle: saline with Tween-80
[6] = dose: 12.5 mg/kg/injection, schedule: Q01DX009 (ip), vehicle: Klucel (hydroxypropylcellulose) (HPC)
[7] = dose: 60.0 mg/kg/injection, schedule: Q01DX005 (ip), vehicle: saline
[8] = dose: 120.0 mg/kg/injection, schedule: Q01DX005 (ip), vehicle: saline
[9] = dose: 60.0 mg/kg/injection, schedule: Q01DX005 (ip), vehicle: Klucel (hydroxypropylcellulose) (HPC)
[10] = dose: 12.5 mg/kg/injection, schedule: Q01DX009 (ip), vehicle: saline
[11] = dose: 25.0 mg/kg/injection, schedule: Q01DX009 (ip), vehicle: saline
[12] = dose: 50.0 mg/kg/injection, schedule: Q01DX009 (ip), vehicle: saline with Tween-80
[13] = dose: 120.0 mg/kg/injection, schedule: Q01DX005 (ip), vehicle: Klucel (hydroxypropylcellulose) (HPC)
[14] = dose: 240.0 mg/kg/injection, schedule: Q01DX005 (ip), vehicle: Klucel (hydroxypropylcellulose) (HPC)
[15] = dose: 25.0 mg/kg/injection, schedule: Q01DX009 (ip), vehicle: Klucel (hydroxypropylcellulose) (HPC)
[16] = dose: 50.0 mg/kg/injection, schedule: Q01DX009 (ip), vehicle: Klucel (hydroxypropylcellulose) (HPC)

O=C(CCN1C(=O)c2ccccc2C1=O)c1cnc[nH]1
T/C (dose: 17.5 mg/kg/injection, schedule: Q01DX005 (ip), vehicle: Klucel (hydroxypropylcellulose) (HPC)): 105 % of control | T/C (dose: 35.0 mg/kg/injection, schedule: Q01DX005 (ip), vehicle: Klucel (hydroxypropylcellulose) (HPC)): 90 % of control | T/C (dose: 70.0 mg/kg/injection, schedule: Q01DX005 (ip), vehicle: Klucel (hydroxypropylcellulose) (HPC)): 98 % of control

COP(=O)(Cc1ccccc1O)OC
T/C [1]: 97 % of control | T/C [2]: 99 % of control | T/C [3]: 96 % of control

COc1c(OC(C)=O)c(OC(C)=O)cc2c1-c1ccc(OC)c(=O)cc1C(NC(C)=O)CC2 (stereo not drawn)
T/C (dose: 0.25 mg/kg/injection, schedule: Q01DX005 (ip), vehicle: saline): 117 % of control | T/C (dose: 0.5 mg/kg/injection, schedule: Q01DX005 (ip), vehicle: saline): 123 % of control | T/C (dose: 4.0 mg/kg/injection, schedule: Q01DX005 (ip), vehicle: saline): 155 % of control | T/C (dose: 8.0 mg/kg/injection, schedule: Q01DX005 (ip), vehicle: saline): 163 % of control | T/C (dose: 16.0 mg/kg/injection, schedule: Q01DX005 (ip), vehicle: saline): 172 % of control

CCOc1ccc(C(=O)Nc2c(C)cc(C)cc2C)cc1
T/C [4]: 90 % of control | T/C [5]: 95 % of control | T/C (dose: 400.0 mg/kg/injection, schedule: Q01DX009 (ip), vehicle: saline with Tween-80): 105 % of control

C=CCNC(=O)c1cc(N2CC2)c([N+](=O)[O-])cc1[N+](=O)[O-]
T/C [6]: 91 % of control and 97 % of control

COCCCCCC(=O)OC
T/C [7]: 101 % of control | T/C [8]: 100 % of control | T/C (dose: 240.0 mg/kg/injection, schedule: Q01DX005 (ip), vehicle: saline): 104 % of control

Cn1c2nc(-[n+]3ccc4ccccc4c3)nc-2c([O-])n(C)c1=O
T/C (dose: 100.0 mg/kg/injection, schedule: Q04DX003 (ip), vehicle: saline): 100 % of control | T/C (dose: 200.0 mg/kg/injection, schedule: Q04DX003 (ip), vehicle: saline): 99 % of control | T/C (dose: 400.0 mg/kg/injection, schedule: Q04DX003 (ip), vehicle: saline): 100 % of control

CC(C)N(c1ccnc(F)n1)C(C)C
T/C (dose: 30.0 mg/kg/injection, schedule: Q01DX005 (ip), vehicle: Klucel (hydroxypropylcellulose) (HPC)): 102 % of control | T/C [9]: 104 % of control

CCN(CC)C(C)(C)C(=O)/C=C/c1ccc(Cl)cc1
T/C [7]: 115 % of control | T/C [8]: 101 % of control

C=CCNCC(O)C(F)(F)C(F)(F)C(F)(F)C(F)(F)C(F)(F)C(F)(F)F (stereo not drawn)
T/C (dose: 60.0 mg/kg/injection, schedule: Q01DX005 (ip), vehicle: saline with Tween-80): 101 % of control | T/C (dose: 120.0 mg/kg/injection, schedule: Q01DX005 (ip), vehicle: saline with Tween-80): 101 % of control | T/C (dose: 240.0 mg/kg/injection, schedule: Q01DX005 (ip), vehicle: saline with Tween-80): 109 % of control

c1cc2cc3c(cc2o1)OC[C@H]1c2cc4c(cc2O[C@@H]31)OCO4
T/C (dose: 100.0 mg/kg/injection, schedule: Q01DX001 (ip), vehicle: Klucel (hydroxypropylcellulose) (HPC)): 91 % of control | T/C (dose: 200.0 mg/kg/injection, schedule: Q01DX001 (ip), vehicle: Klucel (hydroxypropylcellulose) (HPC)): 87 % of control

CN(C)CCC(C#N)(CCN(C)C)c1ccccc1
T/C (dose: 50.0 mg/kg/injection, schedule: Q01DX005 (ip), vehicle: saline): 105 % of control | T/C (dose: 100.0 mg/kg/injection, schedule: Q01DX005 (ip), vehicle: saline): 103 % of control | T/C (dose: 200.0 mg/kg/injection, schedule: Q01DX005 (ip), vehicle: saline): 106 % of control

O=C(Oc1ccccc1)c1cc2ccccc2cc1O
T/C (dose: 6.25 mg/kg/injection, schedule: Q01DX009 (ip), vehicle: saline): 100 % of control | T/C [10]: 103 % of control | T/C [11]: 100 % of control

CC1C2=C(CC(C)(C)CC2=O)OC2=C1C(=O)CC(C)(C)C2
T/C [12]: 103 % of control | T/C [4]: 104 % of control | T/C [5]: 99 % of control

CCOC(=O)C(C)/C(C)=N\NC(N)=S (stereo not drawn)
T/C [9]: 100 % of control | T/C [13]: 100 % of control | T/C [14]: 100 % of control

NC(=O)c1cc([N+](=O)[O-])cc([N+](=O)[O-])c1
T/C [15]: 103 % of control | T/C [16]: 88 % of control | T/C (dose: 100.0 mg/kg/injection, schedule: Q01DX009 (ip), vehicle: Klucel (hydroxypropylcellulose) (HPC)): 91 % of control

O=[N+]([O-])c1cc(F)cc([N+](=O)[O-])c1O
T/C [6]: 102 % of control | T/C [15]: 102 % of control | T/C [16]: 112 % of control

CCC1=C[C@@H]2C[C@](C(=O)OC)(c3cc4c(cc3OC)N(C)[C@H]3[C@@](O)(C(=O)OC)[C@H](OC(C)=O)[C@]5(CC)C=CCN6CC[C@]43[C@@H]65)c3[nH]c4ccccc4c3CCN(C1)C2=O
T/C (dose: 4.7 mg/kg/injection, schedule: Q01DX001 (ip), vehicle: other): 113 % of control | T/C (dose: 9.4 mg/kg/injection, schedule: Q01DX001 (ip), vehicle: other): 117 % of control | T/C (dose: 37.5 mg/kg/injection, schedule: Q01DX001 (ip), vehicle: suspension in saline): 195 % of control

CCC[P+](CCC)(CCC)CCCCCCCCCC[P+](CCC)(CCC)CCC
T/C (dose: 0.19 mg/kg/injection, schedule: Q01DX009 (ip), vehicle: saline): 106 % of control | T/C (dose: 0.39 mg/kg/injection, schedule: Q01DX009 (ip), vehicle: saline): 100 % of control | T/C (dose: 0.79 mg/kg/injection, schedule: Q01DX009 (ip), vehicle: saline): 88 % of control

NC1(C(=O)O)CCc2ccccc2C1 (stereo not drawn)
T/C (dose: 50.0 mg/kg/injection, schedule: Q01DX005 (ip), vehicle: Klucel (hydroxypropylcellulose) (HPC)): 104 % of control | T/C (dose: 100.0 mg/kg/injection, schedule: Q01DX005 (ip), vehicle: Klucel (hydroxypropylcellulose) (HPC)): 102 % of control | T/C (dose: 200.0 mg/kg/injection, schedule: Q01DX005 (ip), vehicle: Klucel (hydroxypropylcellulose) (HPC)): 100 % of control

NC(=O)C1C2C=CC(C2)C1C(N)=O (stereo not drawn)
T/C [9]: 97 % of control | T/C [13]: 103 % of control | T/C [14]: 97 % of control

CNCC(=O)Nc1ccc(C2NC(=O)Cc3ccccc32)cc1 (stereo not drawn)
T/C (dose: 100.0 mg/kg/injection, schedule: Q04DX002 (ip), vehicle: saline): 104 % of control | T/C (dose: 200.0 mg/kg/injection, schedule: Q04DX002 (ip), vehicle: saline): 111 % of control

CCCCCN(CCCCC)CCCCC
T/C (dose: 25.0 mg/kg/injection, schedule: Q01DX009 (ip), vehicle: saline with Tween-80): 86 % of control | T/C [12]: 98 % of control | T/C [4]: 101 % of control | T/C [5]: 88 % of control

COc1ccc(C2COc3cc4occc4cc3C2=O)c(OC)c1OC (stereo not drawn)
T/C (dose: 11.25 mg/kg/injection, schedule: Q01DX005 (ip), vehicle: Klucel (hydroxypropylcellulose) (HPC)): 99 % of control | T/C (dose: 22.5 mg/kg/injection, schedule: Q01DX005 (ip), vehicle: Klucel (hydroxypropylcellulose) (HPC)): 97 % of control | T/C (dose: 45.0 mg/kg/injection, schedule: Q01DX005 (ip), vehicle: Klucel (hydroxypropylcellulose) (HPC)): 95 % of control | T/C (dose: 90.0 mg/kg/injection, schedule: Q01DX005 (ip), vehicle: Klucel (hydroxypropylcellulose) (HPC)): 97 % of control | T/C (dose: 180.0 mg/kg/injection, schedule: Q01DX005 (ip), vehicle: Klucel (hydroxypropylcellulose) (HPC)): 99 % of control

COC(=O)CC1(C(=O)OC)C2=C(CCCC2)N2CCCC21 (stereo not drawn)
T/C (dose: 21.88 mg/kg/injection, schedule: Q01DX009 (ip), vehicle: Klucel (hydroxypropylcellulose) (HPC)): 102 % of control | T/C (dose: 43.75 mg/kg/injection, schedule: Q01DX009 (ip), vehicle: Klucel (hydroxypropylcellulose) (HPC)): 102 % of control | T/C (dose: 87.5 mg/kg/injection, schedule: Q01DX009 (ip), vehicle: Klucel (hydroxypropylcellulose) (HPC)): 100 % of control | T/C (dose: 175.0 mg/kg/injection, schedule: Q01DX009 (ip), vehicle: Klucel (hydroxypropylcellulose) (HPC)): 100 % of control

CCOC(=O)CC1=NN=C(N)SC1
T/C [10]: 100 % of control | T/C [11]: 101 % of control and 103 % of control | T/C [1]: 101 % of control and 106 % of control | T/C [2]: 93 % of control and 97 % of control | T/C [3]: 87 % of control

C=CCCC1CC2CCCCN2O1 (stereo not drawn)
T/C (dose: 61.25 mg/kg/injection, schedule: Q01DX009 (ip), vehicle: saline): 115 % of control | T/C (dose: 122.5 mg/kg/injection, schedule: Q01DX009 (ip), vehicle: saline): 103 % of control | T/C (dose: 245.0 mg/kg/injection, schedule: Q01DX009 (ip), vehicle: saline): 100 % of control
